Assay [1] concerns the target T1, G-protein coupled receptor homolog US28 (Human cytomegalovirus (strain AD169) (HHV-5) (Human herpesvirus 5), UniProt P69332).
T1 sequence (P69332 whole entry): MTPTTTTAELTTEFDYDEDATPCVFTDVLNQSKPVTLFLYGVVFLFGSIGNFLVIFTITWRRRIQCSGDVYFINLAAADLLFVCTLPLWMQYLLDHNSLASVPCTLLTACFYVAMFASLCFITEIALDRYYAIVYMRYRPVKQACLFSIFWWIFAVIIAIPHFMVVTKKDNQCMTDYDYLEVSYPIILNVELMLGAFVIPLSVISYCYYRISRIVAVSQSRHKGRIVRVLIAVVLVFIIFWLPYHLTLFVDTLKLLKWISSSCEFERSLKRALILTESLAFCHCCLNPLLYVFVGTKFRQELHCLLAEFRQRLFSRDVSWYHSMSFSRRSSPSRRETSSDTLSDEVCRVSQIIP
Kind of assay: Allosteric modulatory activity at FLAG-tagged wild type human cytomegalovirus US28 receptor expressed in HEK293T cells by PathDetectElk1 assay. It is filed as cell-based, Human betaherpesvirus 5, HEK-293T.

Assay [2] deals with T2, G-protein coupled receptor homolog US28 (Human cytomegalovirus (strain AD169) (HHV-5) (Human herpesvirus 5)) (UniProt P69332).
T2 sequence (whole entry): T1 sequence (P69332 whole entry)
The assay can be described thus: Allosteric modulatory activity at FLAG-tagged wild type human cytomegalovirus US28 receptor expressed in HEK293T cells by PathDetectElk1 assay relative to basal level. It is filed as cell-based. The arrangement: concentration or dose not given beside the values. To be noted: Human betaherpesvirus 5; HEK-293T.

For assay [3], the target named is G protein-coupled receptor (Human betaherpesvirus 5, UniProt Q9IP65). Kind of assay: Allosteric modulatory activity at FLAG-tagged human cytomegalovirus US28 receptor delta300 mutant expressed in HEK293T cells by PathDetectElk1 assay. It counts as cell-based. To be noted: hek-293t.
Assay [4] concerns the target T3, G protein-coupled receptor (Human betaherpesvirus 5) (UniProt Q9IP65).
T3 sequence (whole entry): T1 sequence (P69332 whole entry) with T21A, F25L, D170N, R267K, V346A
Kind of assay: Allosteric modulatory activity at FLAG-tagged human cytomegalovirus US28 receptor delta300 mutant expressed in HEK293T cells by PathDetectElk1 assay relative to basal level. It counts as cell-based. To be noted: HEK-293T.

Assay [5] deals with T3, G protein-coupled receptor (Human betaherpesvirus 5). Kind of assay: Increase in CX3CL1/Fractalkine binding to FLAG-tagged human cytomegalovirus US28 receptor delta300 mutant expressed in HEK293T cells. It is filed as cell-based. To be noted: HEK-293T.
The target is the same in assay [6]. The assay can be described thus: Allosteric modulatory activity at FLAG-tagged human cytomegalovirus US28 receptor delta300 mutant expressed in HEK293T cells assessed as reduction in CX3CL1/Fractalkine-induced response by PathDetectElk1 assay. It counts as cell-based. To be noted: HEK-293T.
The target is the same in assay [7]. The assay can be described thus: Effect on CX3CL1/Fractalkine binding to FLAG-tagged human cytomegalovirus US28 receptor delta300 mutant expressed in HEK293T cells. It counts as cell-based. To be noted: HEK-293T.
The target is the same in assay [8]. The assay can be described thus: Allosteric modulatory activity at FLAG-tagged human cytomegalovirus US28 receptor delta300 mutant expressed in HEK293T cells at 10 uM in presence of CX3CL1/Fractalkine by PathDetectElk1 assay. It is filed as cell-based. To be noted: HEK-293T.
Assay [9] has the same target. Kind of assay: Allosteric modulatory activity at FLAG-tagged human cytomegalovirus US28 receptor delta300 mutant expressed in HEK293T cells assessed as reduction in CCL5/Rantes-induced response by PathDetectElk1 assay. It counts as cell-based. To be noted: HEK-293T.

Each structure is given as a SMILES string. Numbering of substitutions follows the chain as printed. Active and inactive are the calls of the source. The calls are words filed in the database; no cut-off is given here.

G protein-coupled receptor, sequence (Q9IP65 1-354): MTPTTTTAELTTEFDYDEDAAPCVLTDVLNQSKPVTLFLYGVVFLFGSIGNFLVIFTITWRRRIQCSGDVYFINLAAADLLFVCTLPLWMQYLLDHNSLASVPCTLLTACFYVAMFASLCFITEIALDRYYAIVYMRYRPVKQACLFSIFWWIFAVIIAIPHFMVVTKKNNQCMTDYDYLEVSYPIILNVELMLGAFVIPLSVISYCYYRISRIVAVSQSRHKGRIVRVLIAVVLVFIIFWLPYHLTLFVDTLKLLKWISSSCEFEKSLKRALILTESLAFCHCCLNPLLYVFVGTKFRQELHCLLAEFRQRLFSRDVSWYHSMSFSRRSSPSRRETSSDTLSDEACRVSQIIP

For `CSc1ccc2c(c1)C(N1CCN(C)CC1)Cc1ccccc1S2` (stereo not given) [METITEPINE], the values for the concentration for a half-maximal effect (EC50) in assay [1] and in assay [3] were 350 nM and 330 nM, respectively. For the same compound, the Efficacy in assay [2] worked out at 10%; in assay [4] it was 110%. Moreover, in assay [3], the negative logarithm of the EC50 (pEC50) worked out at 6.48.
The matching figures for `CCCCCCCCCC(=O)N(CCN(C)C)CC1(C)Cc2ccccc2C(=O)N1` (stereo not given): 1500 nM, greater than 10000 nM, -20%, greater than 180% and less than 5.
Take `CC1(CCO)Cc2ccccc2C(=O)N1c1ccccc1` (stereo not given): the results for the concentration for a half-maximal effect (EC50) in [1] and in assay [3] were 1000 nM and 3100 nM, respectively. For the same compound, the Efficacy in [2] is -14%; in assay [4], -21%. Besides, the negative logarithm of the EC50 (pEC50) in assay [3] was 5.51.
In the case of `CC1(CO)Cc2ccccc2C(=O)N1c1ccccc1` (stereo not given), the concentration giving a half-maximal response (EC50) in assay [1] stood at 4400 nM; in assay [3] it was 930 nM. Also, the Efficacy in assay [2] came to 41%; in assay [4] it was 27%. The compound further had a pEC50 in [3] of 6.03. For the same compound, in assay [5], the outcome was Active.
On to `N#CC(CCCN1CCC(O)(c2ccc(Cl)cc2)CC1)(c1ccccc1)c1ccccc1` [BERLEX COMPOUND], for which the concentration giving a half-maximal response (EC50) in [1] is 4500 nM; in assay [3], greater than 10000 nM. In addition, the Efficacy is -22% in assay [2] and greater than 180% in [4]. This compound registered a pEC50 in assay [3] of less than 5.
Regarding `CC1(COC(=O)Cc2ccccc2)Cc2ccccc2CN1C(=O)Cc1ccccc1` (stereo not given), the concentration for a half-maximal effect (EC50) in assay [1] worked out at 3400 nM; in assay [3] it was 2500 nM. The Efficacy in [2] is -37%; in assay [4], -29%. The pEC50 in assay [3] turned out to be 5.59. The Activity result in [6] was “Dose-dependent effect”. Also, the outcome in assay [7] and in assay [8] was inactive. For the same compound, in assay [9], the result was Active.

For orientation: EC50 means the concentration at which the effect is half-maximal. One may read the pEC50 as the negative decadic logarithm of the EC50, by convention in mol/L.

The values are drawn from ChEMBL document CHEMBL3351308, “Allosteric modulation of the G protein-coupled US28 receptor of human cytomegalovirus: are the small-weight inverse agonist of US28 'camouflaged' agonists?” (Bioorg Med Chem Lett, 2014).
